Values of other authors, collected in publication PMC11272189, “PNA5, A Novel Mas Receptor Agonist, Improves Neurovascular and Blood-Brain-Barrier Function in a Mouse Model of Vascular Cognitive Impairment and Dementia” (Aging and Disease, 2024).

Tested on: healthy control mice
Conditions: daily injections at 1mg/kg/day
Experimental: All use of animals in this study conformed to the guidelines approved by the Institutional Animal Care and Use Committee at the University of Arizona and in accordance with the National Institutes of Health Guidelines for the Care and Use of Laboratory Animals. Both the number of animals used, and their suffering were minimized. The number of animals needed for each experiment was determined using a G*Power analysis. Importantly for the present study, we have shown in previously published studies that treatment of healthy control mice with daily injections of PNA5 or the native peptide ...

Angiotensin-(1-7) (DRVYIHP; Angiotensin 1-7; UniProt P01019 25-31, looked up) [Ang-(1-7), native peptide]
effect on heart function, cognitive function or circulating cytokines: no effect
